In publication PMC6368337, “GluClR-mediated inhibitory postsynaptic currents reveal targets for ivermectin and potential mechanisms of ivermectin resistance” (PLoS Pathogens, 2019):

Key:
Type in all cases: cell-based, H. contortus
[1] = molecular target: β GluClRs (Haemonchus contortus, UniProt P91730); test: Two-electrode voltage clamp in oocytes, β GluClRs; settings: EC50, oocytes, −40 mV
Procedure: (§1) cDNAs encoding the α (avr-14b) (pcDNA 3.1+) or β (pUNIV) GluClR subunits of H. contortus were nuclear injected into oocytes (NASCO, WI USA) or transfected into HEK293AD cells (CellBank Australia) using a calcium phosphate-DNA co-precipitate method. Synapse formation between neurons and HEK293 cells was promoted by co-transfecting neuroligin 2A or 1B and the cDNA encoding CD4 surface antigen was also added to the transfection mixture so as to identify transfected cells. The oocytes and HEK cells were used for experiments 2–3 days after the introduction of the cDNAs. All experiments were done at room temperature (22 ± 1°C).
Xenopus laevis oocytes were harvested by surgical incision. The oocytes were then defolliculated with 1.5 mg/ml collagenase for 2 hours. Free oocytes were rinsed with calcium-free OR-2 solution containing (in mM) 82.5 NaCl, 2 KCl, 1 MgCl2, 5 HEPES, pH 7.4 and mature stage V or VI oocytes were isolated for experiments. The DNAs coding for α and β subunits were nuclear injected into the oocytes using a Nanoliter 2000 microinjector (WPI Inc) at a ratio of (α:β), 1:0, 0:1, 1:1 and 1:50. […]
Group data were analysed in SigmaPlot 13.0 using one-way ANOVAs, where p < 0.05 was taken as the significance threshold and expressed as mean ± SEM. […] Confocal images were captured and analysed with Zen 2012 SP2 (Zeiss) software. […] Single channel recordings were analysed in QuB software. […]

[2] = tested on: α and αβ (1:1) GluClRs; test: IVM-induced tonic current in heteroculture, α and αβ data pooled; settings: continuous 5 nM IVM
Procedure: After validating the heterocultures as a reliable preparation for investigating IPSCs mediated by GluClRs, we made synaptic recordings while continuously applying IVM (5 nM) to cells similarly transfected with α and αβ GluClRs. […] Firstly, there was a steady downward deflection in baseline current over the course of the recording that was not different between cells expressing α (Fig 5A) and αβ (1:1, Fig 5B) GluClRs. […] Changes to the kinetic properties of IPSCs were also observed upon IVM application (Fig 5C–5G). These were analysed 15 minutes after the commencement of the IVM application to ensure that the effects had equilibrated. […] The decay time constant for α GluClRs slowed from 40 ± 2 ms to 100 ± 3 ms (n = 6) and for αβ GluClRs from 17 ± 2 ms to 72 ± 4 ms (n = 6, Fig 5E). The increase in activation times were from 4.6 ± 0.7 ms to 19 ± 1 ms for α GluClRs and from 3.0 ± 0.3 ms to 10 ± 1 ms for the αβ heteromers (Fig 5F). […] A comparison of the magnitude changes of IPSC parameters was also made between the two receptor isoforms.
cDNAs encoding the α (avr-14b) (pcDNA 3.1+) or β (pUNIV) GluClR subunits of H. contortus were nuclear injected into oocytes (NASCO, WI USA) or transfected into HEK293AD cells (CellBank Australia) using a calcium phosphate-DNA co-precipitate method. […]

[3] = molecular target: α (avr-14b) GluClRs (Haemonchus contortus, UniProt O46124); test: Two-electrode voltage clamp in oocytes, α GluClRs
Sequence of α (avr-14b) GluClRs (O46124 entry or part of it): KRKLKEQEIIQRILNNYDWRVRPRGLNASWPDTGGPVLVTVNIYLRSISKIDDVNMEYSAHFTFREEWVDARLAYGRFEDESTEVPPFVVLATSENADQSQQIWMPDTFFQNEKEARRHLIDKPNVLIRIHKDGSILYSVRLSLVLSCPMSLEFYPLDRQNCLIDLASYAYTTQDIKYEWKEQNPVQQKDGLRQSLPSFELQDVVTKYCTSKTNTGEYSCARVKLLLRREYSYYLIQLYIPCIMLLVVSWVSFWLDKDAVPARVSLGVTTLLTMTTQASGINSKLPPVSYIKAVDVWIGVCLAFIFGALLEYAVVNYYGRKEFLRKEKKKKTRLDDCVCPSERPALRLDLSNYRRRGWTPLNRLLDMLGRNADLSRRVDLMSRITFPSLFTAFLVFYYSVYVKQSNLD
Procedure: as §1
Xenopus laevis oocytes were harvested by surgical incision. The oocytes were then defolliculated with 1.5 mg/ml collagenase for 2 hours. Free oocytes were rinsed with calcium-free OR-2 solution containing (in mM) 82.5 NaCl, 2 KCl, 1 MgCl2, 5 HEPES, pH 7.4 and mature stage V or VI oocytes were isolated for experiments. The DNAs coding for α and β subunits were nuclear injected into the oocytes using a Nanoliter 2000 microinjector (WPI Inc) at a ratio of (α:β), 1:0, 0:1, 1:1 and 1:50. The total amount of injected DNA in all combinations was 400 ng ml^−1, including the 1:50 (α:β) combination (8 ng of DNA encoding the α and 392 ng of DNA encoding β subunits). Injected oocytes were incubated in ND96 storage solution (in mM) 96 NaCl, 2 KCl, 1 MgCl2.6H2O, 1.8 CaCl2, 5 HEPES, 50 μg ml^−1 gentamicin, 2.5 sodium pyruvate, 0.5 theophylline, pH 7.4 at 16°C for 2–3 days before experiment.
For the two-electrode voltage clamp recordings, each oocyte was secured in a cell bath that was continually perfused with ND96 recording solution (ND96 storage solution without pyruvate, theophylline and gentamicin). […] The two microelectrodes contained 3 M KCl and had resistances of 0.2–2 MΩ. Recordings were done using Clampex 10.2 software (Molecular Devices) at a clamped voltage of −40 mV. Currents were low-pass filtered at 200 Hz, sampled at 2 kHz using a Gene Clamp 500B amplifier and digitised by a Digidata 1440A interface. The IVM (IVM B1a) concentration-response experiments were standardised by using an application protocol that consisted of applying increasing concentrations of IVM for, respectively, 3 min, 3 min, 3 min, 2 min, 1 min, 1 min and 0.5 min.
Group data were analysed in SigmaPlot 13.0 using one-way ANOVAs, where p < 0.05 was taken as the significance threshold and expressed as mean ± SEM. Tests for normally distributed data are built into the SigmaPlot software. Confocal images were captured and analysed with Zen 2012 SP2 (Zeiss) software. Oocyte concentration-response data were fit to a Hill equation to obtain an EC50 and Hill co-efficient for each oocyte recording. These parameters were then averaged across multiple oocyte experiments of the same type. Single channel recordings were analysed in QuB software. […] The selected critical times eliminated periods of receptor desensitisation while retaining singe receptor active periods. Mean active period duration and intra-activation open probability was estimated from each patch. Group means were obtained by averaging across multiple patches for each recording condition.

Sequence of β GluClRs (P91730 19-432): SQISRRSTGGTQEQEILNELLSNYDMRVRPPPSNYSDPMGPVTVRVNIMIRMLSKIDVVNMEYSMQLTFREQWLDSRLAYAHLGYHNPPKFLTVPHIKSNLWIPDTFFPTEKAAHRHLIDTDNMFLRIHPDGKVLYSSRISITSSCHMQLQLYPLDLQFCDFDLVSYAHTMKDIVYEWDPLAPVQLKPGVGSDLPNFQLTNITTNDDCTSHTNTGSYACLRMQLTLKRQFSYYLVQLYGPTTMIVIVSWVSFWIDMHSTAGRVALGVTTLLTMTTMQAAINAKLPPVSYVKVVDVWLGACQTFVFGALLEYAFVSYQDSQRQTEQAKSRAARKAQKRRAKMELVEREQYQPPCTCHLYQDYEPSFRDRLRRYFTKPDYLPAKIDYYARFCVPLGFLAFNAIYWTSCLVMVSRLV

CC[C@H](C)[C@H]1O[C@]2(CC[C@@H]1C)C[C@@H]1C[C@@H](C/C=C(\C)[C@@H](O[C@H]3C[C@H](OC)[C@@H](O[C@H]4C[C@H](OC)[C@@H](O)[C@H](C)O4)[C@H](C)O3)[C@@H](C)/C=C/C=C3\CO[C@@H]4[C@H](O)C(C)=C[C@@H](C(=O)O1)[C@]34O)O2 [IVM, Ivermectin] was tested, and the EC50 [1] was > 10000 nM, the “tonic current fitted time constant” value [2] was 483 ± 72 s and the “tonic current mean amplitude” value [2] was 304 ± 54 pA. For the same compound, the EC50 ([3]; EC50, oocytes, holding potential −40 mV) was 22 ± 3 nM, the Hill co-efficient ([3]; oocytes, −40 mV) was 1.9 ± 0.1 and the Emax ([3]; read-out: maximal response, % of that seen with saturating glutamate) was 59%.
